Results published in PubChem BioAssay (NCI).
Values after ≈ are worked out from the molar mass of the structure shown.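 The compound was tested at five concentrations on cells cultured in 96-well plates, with a 48-hour exposure period. GI50 = concentration required for 50% inhibition of growth. TGI denotes the concentration required for complete inhibition of growth.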

Columns and labels:
Assay in all cases: growth of human tumour cells (NCI), 48 h
SR leukemia = test system: SR leukemia
NCI-H522 lung = test system: NCI-H522 lung
OVCAR-3 ovarian = test system: OVCAR-3 ovarian
CCRF-CEM leukemia = test system: CCRF-CEM leukemia
HOP-62 NSCLC = test system: HOP-62 NSCLC
RXF 393 renal = test system: RXF 393 renal
PC-3 prostate = test system: PC-3 prostate
SF-539 CNS = test system: SF-539 CNS
UACC-62 melanoma = test system: UACC-62 melanoma
KM12 colon = test system: KM12 colon

SMILES | TGI (SR leukemia) | TGI (NCI-H522 lung) [µM] | TGI (OVCAR-3 ovarian) | TGI (CCRF-CEM leukemia) | TGI (HOP-62 NSCLC) | TGI (RXF 393 renal) | TGI (PC-3 prostate) | TGI (SF-539 CNS) | TGI (UACC-62 melanoma) | TGI (KM12 colon) | GI50 (NCI-H522 lung) [µM] | GI50 (OVCAR-3 ovarian) | GI50 (HOP-62 NSCLC) | GI50 (PC-3 prostate) | GI50 (SF-539 CNS) | GI50 (KM12 colon) | GI50 (SR leukemia) [µg/mL] | GI50 (CCRF-CEM leukemia) | GI50 (RXF 393 renal) [µg/mL] | GI50 (UACC-62 melanoma) [µg/mL]
NC(N)=NS(=O)(=O)c1ccc(NC(=O)c2ccc3nc4ccccc4c(Nc4ccc(S(N)(=O)=O)cc4)c3c2)cc1 | > 100 µM | > 100 | > 100 µM | > 100 µM | > 100 µM | > 100 µM | > 100 µM | > 100 µM | > 100 µM | > 100 µM |  |  |  |  |  |  |  |  |  | 
Cn1c2ccccc2c2c3c(c4c5ccccc5n(C)c4c21)C(=O)c1ccccc1C3=O | 40.2 µM | 68.2 | > 100 µM | > 100 µM | > 100 µM | 48.6 µM | > 100 µM | 51.1 µM | > 100 µM | > 100 µM |  |  |  |  |  |  |  |  |  | 
CCO/C(O)=C(/C(=N)N1CCCC1)C(=O)Nc1cccc(C(F)(F)F)c1 |  | > 100 | > 100 µM | > 100 µM | > 100 µM | 53.6 µM | > 100 µM | 51.9 µM | > 100 µM | > 100 µM |  |  |  |  |  |  |  |  |  | 
O=C(NCc1ccc(Cl)cc1)c1cc2sccc2nc1C(F)(F)F | > 100 µM | 95.2 | 98.4 µM | > 100 µM | 56.2 µM | 67.4 µM | > 100 µM | 70 µM | > 100 µM | > 100 µM |  |  |  |  |  |  |  |  |  | 
COc1cc(C2S/C(=C/c3ccccc3)C(=O)N2c2ccc(Cl)c(Cl)c2)cc(OC)c1OC (stereo unspecified) | > 100 µM | 51.4 | > 100 µM | > 100 µM | > 100 µM | > 100 µM | > 100 µM |  |  | > 70.3 µM |  |  |  |  |  |  |  |  |  | 
Clc1ccc(N=c2oc3ccccc3cc2-c2nc3ccccc3[nH]2)c(Cl)c1 | > 100 µM | > 100 | > 100 µM | > 100 µM | 65.1 µM | 41.7 µM | > 100 µM |  | > 100 µM | > 100 µM |  |  |  |  |  |  |  |  |  | 
CSc1c(C#N)c2n(c3ccccc13)c1ccccc1[n+]2C | > 100 µM | 31.5 | > 100 µM | 47.6 µM | 52.7 µM |  | 78.5 µM | 78.8 µM | 47.1 µM | > 100 µM |  |  |  |  |  |  |  |  |  | 
NNC(=S)N1CCN(C(=S)NN)CC1 | > 100 µM | > 100 | > 100 µM | > 100 µM | > 100 µM |  | > 100 µM |  | > 100 µM | > 100 µM |  |  |  |  |  |  |  |  |  | 
Cc1ccc(S(=O)(=O)c2c(O)c3ccccc3n(C)c2=O)cc1 |  |  | > 100 µM | > 100 µM | > 100 µM | > 100 µM | > 100 µM | > 100 µM | > 100 µM | > 100 µM |  |  |  |  |  |  |  |  |  | 
COc1cc(S(=O)(=O)Nc2ccc(C3=NNC(c4ccccc4)C3)cc2)ccc1F (stereo unspecified) |  | > 100 | > 100 µM |  | 80.4 µM |  | > 100 µM | > 100 µM | 45.2 µM | > 100 µM | 38 | 50.3 µM | 22.7 µM | 29.8 µM | 40 µM | 18 µM |  |  |  | 
Nc1cc(N2CCCC2)nc(=O)n1Cc1ccccc1 | > 100 µM | > 100 |  | > 100 µM | > 100 µM |  | > 100 µM | > 100 µM |  | > 100 µM |  |  |  |  |  |  |  |  |  | 
CC(=O)Oc1ccc(C2COc3cc(OC(C)=O)c(OC(C)=O)cc3C2)cc1 (stereo unspecified) |  | 7.78 | 25.2 µM | 58.1 µM | 48 µM | 23.8 µM |  | 40.2 µM | 24.2 µM | 69.5 µM |  |  |  |  |  |  |  |  |  | 
Oc1ccc(CCc2cc(O)cc(O)c2)cc1 | > 100 µM | > 100 | > 100 µM |  | > 100 µM | > 100 µM | > 100 µM | > 100 µM | > 100 µM | > 100 µM |  |  |  |  |  |  |  |  |  | 
CN(C)CCNc1ncnc2nc(-c3ccc4ccccc4c3)[nH]c12 | > 100 µM | > 100 | > 100 µM | > 100 µM | > 100 µM | > 100 µM | > 100 µM |  | > 100 µM | > 100 µM |  |  |  |  |  |  |  |  |  | 
CC(=Nc1ccncc1)C(C)=Nc1ccncc1 | 67 µM | 35.3 | 28.8 µM | 85.5 µM | 49.4 µM | 59.8 µM | 38.9 µM | 35.1 µM |  | > 100 µM |  |  |  |  |  |  |  |  |  | 
O=C1C(Br)=C(c2ccccc2)S(=O)c2ccccc21 (stereo unspecified) |  | 3.35 | 26 µM |  | 5.68 µM | 24.8 µM | 21.2 µM | 12.9 µM | 26.6 µM | 30.7 µM |  |  |  |  |  |  |  |  |  | 
Cn1nc(S(N)(=O)=O)s/c1=N/C(N)=S | > 100 µM | > 100 | > 100 µM | > 100 µM | > 100 µM | > 100 µM |  | > 100 µM | > 100 µM | > 100 µM |  |  |  |  |  |  |  |  |  | 
Cn1cnc2c(sc3nc4ccccc4n32)c1=N |  |  | > 100 µM | > 100 µM | > 100 µM | > 100 µM | > 100 µM | > 100 µM | > 100 µM |  |  |  |  |  |  |  |  |  |  | 
CC(C)OP(=O)(OC(C)C)C(C(C)C)N(C)/C(F)=N/C(F)(F)F (stereo unspecified) |  | > 100 | > 100 µM | > 100 µM | > 100 µM | > 100 µM | > 100 µM | > 100 µM | > 100 µM | > 100 µM |  |  |  |  |  |  |  |  |  | 
COc1cc(/C=C2/N=C(c3ccccc3)N(C3=NNC4(C(=O)N3)c3ccccc3-c3ccccc34)NC2=O)ccc1O | > 150 µg/mL |  | 53.5 µg/mL | > 150 µg/mL | 56.2 µg/mL | 48.6 µg/mL | 79.6 µg/mL | 59.3 µg/mL | 48.3 µg/mL | 42.9 µg/mL |  | 24.8 µg/mL | 23.4 µg/mL | 29.5 µg/mL | 28.7 µg/mL | 22.7 µg/mL | 48.3 (≈ 86.8 µM) | 46.3 µg/mL | 26.7 (≈ 48 µM) | 27.4 (≈ 49.2 µM)
COc1ccc2c(c1)/c(=C/c1ccc(N(C)C)cc1)c1cc(-c3ccccc3)[n+](C)n12 | 2.84 µM |  |  |  | 2.71 µM | 1.64 µM | 1.09 µM |  | 2.01 µM | 1.71 µM |  |  |  |  |  |  |  | 0.0859 µM |  | 
COc1cc(/C=C2\CCC(C)C3=C2NC(=S)NC3c2cc(OC)c(OC)c(OC)c2)cc(OC)c1OC (stereo unspecified) | > 100 µM |  |  | > 100 µM | > 100 µM | > 100 µM | > 100 µM |  | > 100 µM | > 100 µM |  |  |  |  |  |  |  |  |  | 
